From patent US11135193B2, “Composition containing monoacetyldiacylglycerol compound as active ingredient for preventing or treating asthma” (Enzychem Lifesciences Corporation, priority 2013, dated 2021) come the findings set out here.

Data set [1] has as its system IL-4 mRNA. The data set can be described thus: Inhibition of PMA-induced expression of IL-4 mRNA in EL-4 cells (PCR). The class given is cell-based, mouse. The following applies: 20 μg/mL, PMA 1 ng/mL; for Inhibition (%) of IL-4 mRNA expression: compared to PMA-treated group. On the procedure:
Based on the results of Example 1, each of the monoacetyldiacylglycerol compounds was added to EL-4 cells at a concentration of 20 μg/mL, and the effect thereof on the inhibition of PMA-induced expression of IL-4 mRNA in the EL-4 cells was measured. Specifically, the expression level of IL-4 mRNA induced by PMA (1 ng/mL) was measured using real-time polymerase chain reaction (real-time PCR) and quantitative real time polymerase chain reaction (qPCR). For cell preparation, EL-4 cells were seeded into a 6-well plate at a concentration of 1×10^6 cells/well and cultured for 12 hours, after which the cells were treated with each of the monoacetyldiacylglycerol compounds at a concentration of 20 μg/mL for 1 hour and treated with PMA at a concentration of 1 ng/ml, followed by culture for 12 hours. Total RNA was extracted from the cells using Trizol B (Invitrogen, USA) and quantified, and then cDNA was synthesized from the total RNA using an Omniscript RT kit (Qiagen, GmbH, Hilden, Germany). The synthesized cDNA as a template was mixed with each of the IL-4 and GAPDH primers shown in Table 2 below and was subjected to PCR using a PCR mix (PCR Master Mix, Bioneer, Korea) under the following conditions: denaturation at 94° C. for 5 minutes; and then 30 cycles, each consisting of 30 sec at 95° C., 45 sec at 60° C., and 45 sec at 72° C.; followed by enzyme inactivation at 72° C. for 10 minutes. The results of measuring the percent inhibition of expression of IL-4 mRNA in EL-4 cells as described above are shown in Table 3 below. The designation of each of the samples shown in Table 3 below is as described with respect to Table 1 above.

Data set [2] relates to EL-4 cells. As to the kind of experiment: Cytotoxicity of monoacetyldiacylglycerol compounds in EL-4 cells (CCK-8 cell viability). The note with it: 24 hours.
Experimental: (§2) EL-4 cells that are mouse T lymphoma cells were suspended in 10% fetal bovine serum-containing RPMI medium (Gibco) at a concentration of 5×10^4 cells/ml, and 100 μl of the cell suspension was seeded into each well of a 96-well plate and cultured for 12 hours. Next, the cell culture was treated with monoacetyldiacylglycerol (MADG) compounds at the concentrations shown in Table 1 below, and was then additionally cultured for 24 hours. Next, according to the instruction provided in a CCK-8 kit (Dojindo) capable of counting cells, 10 μl of CCK-8 solution was added to the kit and allowed to react for 30 minutes to 4 hours, and then the absorbance (OD) at 570 nm was measured. In equation 1, the negative control group indicates a cell culture treated with 0.2% DMSO. […] Cell viability (%)=[(OD 570 nm value of MADC-treated group)/(OD 570 nm value of negative control group)]×100 Equation 1
Data set [3] deals with ovalbumin-induced asthma Balb/c mice. As to the kind of experiment: Airway hyperresponsiveness (Pehn, plethysmography) in ovalbumin-induced asthma model. Type of data set: in vivo, mouse. The following applies: 30 mg/kg oral. As to the method:
(§1) 6-week-old female SPF (specific pathogen-free) Balb/c mice (average weight: 20 g) were purchased from Samtako (Korea). The animals were sufficiently fed with solid feed (antibiotic-free, Samyang Feed Co.) and water until the start point of the experiment, and acclimated at a temperature of 22±2° C., a humidity of 55±15%, and a 12-hr light/12-hr dark cycle for 1 week, and then used in experiments. After 1 week of the acclimation period as described above, the mice were sensitized by intraperitoneal administration of a suspension of 2 mg of aluminum oxide (A8222, Sigma-Aldrich, MO, USA) and 20 μg of ovalbumin (A5503, Sigma-Aldrich) in 200 μl of phosphate buffered saline at two-week intervals. During a period from day 21 to day 23 after the first intraperitoneal administration of ovalbumin, 1% ovalbumin was inhaled into the mice for 30 minutes using an ultrasonic nebulizer (NE-U12, Omron Corp., Japan). At 24 hours after the last ovalbumin challenge, the airway hyperresponsiveness of the mice was measured, and after 48 hours, the mice were anesthetized by intraperitoneal administration of Pentobarbital (50 mg/kg, Entobal, Hanil, Korea). Then, blood was collected through the saphenous vein, and the mice were subjected to tracheostomy. Next, each of the mice was subjected to bronchoalveolar lavage with a total of 1.4 ml of PBS to collect an analytical sample. […] The drug and the sample were administered orally during a period from day 18 to day 23 after the first ovalbumin […] (FIG. 1). Seven mice were used per group.
To measure airway hyperresponsiveness that is one of the major features of asthma, one chamber plethysmography (All Medicus, Korea) was used. The degree of airway resistance was evaluated by measuring enhanced pause (Pehn). For measurement of Pehn, the basis value was measured in a normal breathing state, and then PBS was inhaled for 3 minutes using an ultrasonic nebulizer, after which the Pehn value was measured for 3 minutes.

The test system is the same in data set [4]. The data set can be described thus: Inflammatory cell count in bronchoalveolar lavage fluid, ovalbumin-induced asthma model. Type of data set: in vivo, mouse. The note with it: BALF; 30 mg/kg oral. On the procedure: as §1
An increase in the number of eosinophils is one of the major features of asthma. Thus, in order to measure the number of eosinophils, the following experiment was performed. The bronchoalveolar lavage fluid from each mouse was stained with trypan blue immediately after collection, and the number of total cells (excluding dead cells) was calculated using a hemocytometer.

The test system of data set [5] is interleukins (IL-4, IL-5 and IL-13). The data set can be described thus: Th2 cytokines in bronchoalveolar lavage fluid (ELISA), ovalbumin-induced asthma model. The note with it: BALF; 30 mg/kg oral. The class given is in vivo, mouse. As to the method: as §1
The production of interleukins (IL-4, IL-5 and IL-13) in the bronchoalveolar lavage fluid isolated from each mouse was measured using a commercially available enzyme-linked immunosorbent assay (ELISA) kit (R&D System, USA). The analysis of each cytokine was performed according to the manufacturer's instruction, and the absorbance at 450 nm was measured using an ELISA reader (Molecular Devices, USA).
In general terms: In an ELISA, binding on a coated surface is turned into a signal by an enzyme label.

For data set [6], the system named is serum IgE and ovalbumin-specific IgE. As to the kind of experiment: Serum IgE and ovalbumin-specific IgE (ELISA), ovalbumin-induced asthma model. Type of data set: in vivo, mouse. The following applies: 30 mg/kg oral. On the procedure:
as §1
The blood collected through the saphenous vein was incubated at room temperature for 30 minutes, and then centrifuged (3000 rpm, 15 min) to obtain serum. For measurement of serum IgE and ovalbumin-specific IgE, ELISA was used. IgE was measured using commercially available IgE (Biolegend Ins., USA). For measurement of ovalbumin-specific IgE, in a 96-well flat bottom ELISA plate, ovalbumin was dissolved in 0.1 M NaHCO3 buffer (pH 8.3) at a concentration of 20 μg/mL and incubated at 4° C. for 16 hours. Next, PBS containing 1% bovine serum albumin (BSA) was added to suppress nonspecific reactions. The serum sample was diluted at 1:400, allowed to react at room temperature for 2 hours, and then washed with PBS containing 0.05% Tween 20. Horseradish peroxidase (HRP)-conjugated goat […] polyclonal A was diluted 4000-fold and allowed to react at room temperature for 1 hour, and then color development was performed using 3,3′5,5′-tetramethylbenzidine substrate.

Data set [7] has as its system EL-4 cells. The following applies: mouse, 24 h.
Experimental: as §2

Structures are written as SMILES. Where two headings read alike, the source gives them in different places. Marks after values point to notes of the source that are not given here.

With `CCCCC/C=C\C/C=C\CCCCCCCC(=O)OCC(COC(C)=O)OC(=O)CCCCCCCCCCCCCCC` (stereo not drawn) [LPAG, 1-linoeoyl-2-palmitoyl-3-acetylglycerol], in data set [1], the “Expression level of IL-4 mRNA (percentage relative to PMA-treated group)” value was determined as 61.11 ± 27.49%. Further, the “Inhibition (%) of IL-4 mRNA expression” value in data set [1] amounted to 38.89%. For the same compound, the “EL-4 cell viability (%, mean ± SD)” value came out at 99.67 ± 1.15% in data set [2] (5 μg/ml), 98.91 ± 0.50% in data set [2] (10 μg/ml) and 99.13 ± 1.18% in data set [2] (20 μg/ml).
For the compound `CCCCC/C=C\C/C=C\CCCCCCCC(=O)OCC(COC(C)=O)OC(=O)CCCCCCCCCCCCCCCCC` (stereo not drawn) [LSAG, 1-linoeoyl-2-stearoyl-3-acetylglycerol], in data set [1], the “Expression level of IL-4 mRNA (percentage relative to PMA-treated group)” value was 41.62 ± 17.61%. In addition, in data set [1], the “Inhibition (%) of IL-4 mRNA expression” value was found to be 58.38%. Further, the “EL-4 cell viability (%, mean ± SD)” value in data set [2] (5 μg/ml) turned out to be 103.82 ± 1.80%; in data set [2] (10 μg/ml), 101.85 ± 1.00%; in data set [2] (20 μg/ml), 98.15 ± 1.82%.
`CC(C)(O)c1ccccc1CC[C@@H](SCC1(CC(=O)O)CC1)c1cccc(/C=C/c2ccc3ccc(Cl)cc3n2)c1` [Mon, montelukast, reference compound]: the Pehn value in data set [3] (methacholine 0 mg/mL) is 0.590 ± 0.07. This compound gave a Pehn value in data set [3] (methacholine 12.5 mg/mL) of 1.261 ± 0.29. The compound further displayed a Pehn value in data set [3] (methacholine 25 mg/mL) of 3.046 ± 0.61. The compound further yielded a Pehn value in data set [3] (methacholine 50 mg/mL) of 4.182 ± 0.99. Besides, in data set [4], the “Inflammatory cell number, Eosinophils” value is 54 ± 17.8* 10^5 per mouse; the “Inflammatory cell number, Lymphocytes” value is 11 ± 10.6 10^5 per mouse; the “Inflammatory cell number, Macrophages” value is reported as 99 ± 21.4* 10^5 per mouse; the “Inflammatory cell number, Neutrophils” value was 14 ± 5.2 10^5 per mouse. Moreover, in data set [4], the “Inflammatory cell number, Total cells” value is recorded as 179 ± 44.0* 10^5 per mouse. Further, in data set [5], the “Th2 cytokines, IL-4” value stood at 18.69 ± 3.00 pg/mL; the “Th2 cytokines, IL-5” value turned out to be 22.74 ± 3.59 pg/mL; the “Th2 cytokines, IL-13” value was 81.42 ± 25.59 pg/mL. Moreover, in data set [6], the IgE amounted to 2.03 ± 0.49 µg/mL and the “OVA specific IgE” value stood at 198.15 ± 42.65 µg/mL.
Take `CCCCCCCC/C=C\CCCCCCCC(=O)OCC(COC(C)=O)OC(=O)CCCCCCCCCCCCCCC` (stereo not drawn) [OPAG, 1-oleoyl-2-palmitoyl-3-acetylglycerol]: the entries for the “EL-4 cell viability (%, mean ± SD)” value in data set [7] (5 μg/ml), in data set [7] (10 μg/ml) and in data set [7] (20 μg/ml) were 98.04 ± 0.94%, 98.91 ± 1.68% and 99.56 ± 2.86%, respectively.
The matching figures for `CCCCCCCC/C=C\CCCCCCCC(=O)OCC(COC(C)=O)OC(=O)CCCCCCCCCCCCCCCCC` (stereo not drawn) [OSAG, 1-oleoyl-2-stearoyl-3-acetylglycerol]: 102.62 ± 2.18%, 100.98 ± 2.37% and 100.22 ± 0.68%.
In the case of `CCCCCCCC/C=C\CCCCCCCC(=O)OC(COC(C)=O)COC(=O)CCCCCCCCCCCCCCC` (stereo not drawn) [POAG, 1-palmitoyl-2-oleoyl-3-acetylglycerol], the “EL-4 cell viability (%, mean ± SD)” value is recorded as 106.94 ± 2.69% in data set [7] (5 μg/ml), 106:39 ±1.19% in data set [7] (10 μg/ml) and 98.90 ± 1.16% in data set [7] (20 μg/ml).
Taken in the same sequence, the figures for `CCCCCCCCCCCCCCCC(=O)OCC(COC(C)=O)OC(=O)CCCCCCCCCCCCCCC` (stereo not drawn) [PPAG, 1-palmitoyl-2-palmitoyl-3-acetylglycerol] were 106.28 ± 1.39%, 105.84 ± 1.38% and 96.59 ± 0.69%.
Consider `CCCCCCCCCCCCCCCCCC(=O)OC(COC(C)=O)COC(=O)CCCCCCCCCCCCCCC` (stereo not drawn) [PSAG, 1-palmitoyl-2-stearoyl-3-acetylglycerol], for which the “EL-4 cell viability (%, mean ± SD)” value in data set [7] (5 μg/ml) is reported as 98.46 ± 0.33%; in data set [7] (10 μg/ml), 100.66 ± 1.25%; in data set [7] (20 μg/ml), 103.30 ± 2.15%.
